What was measured:
LTA4-h [1] = biological target: T1, LTA4-h (Homo sapiens, UniProt P09960); experiment: Hydrolase assay (hydrolase-homogeneous time resolved fluorescence, LTB4 produced); assay type: biochemical
T1 sequence (P09960 1-611): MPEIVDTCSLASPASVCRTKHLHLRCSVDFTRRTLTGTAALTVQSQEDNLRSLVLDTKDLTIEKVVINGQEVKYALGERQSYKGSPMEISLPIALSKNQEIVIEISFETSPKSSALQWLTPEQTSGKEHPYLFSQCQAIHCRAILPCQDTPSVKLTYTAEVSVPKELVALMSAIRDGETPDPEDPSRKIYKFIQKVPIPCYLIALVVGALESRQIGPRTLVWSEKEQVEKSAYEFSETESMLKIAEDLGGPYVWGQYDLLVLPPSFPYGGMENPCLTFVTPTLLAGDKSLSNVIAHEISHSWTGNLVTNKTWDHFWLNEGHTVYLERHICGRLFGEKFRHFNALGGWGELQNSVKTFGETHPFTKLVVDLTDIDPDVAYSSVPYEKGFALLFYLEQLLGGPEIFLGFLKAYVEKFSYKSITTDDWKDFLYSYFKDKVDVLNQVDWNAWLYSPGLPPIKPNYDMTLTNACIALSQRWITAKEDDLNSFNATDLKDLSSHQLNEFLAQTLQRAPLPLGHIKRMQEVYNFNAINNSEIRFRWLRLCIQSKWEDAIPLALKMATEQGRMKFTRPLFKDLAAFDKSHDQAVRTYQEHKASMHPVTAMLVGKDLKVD
From the text: The compounds of the invention can be tested for their ability to inhibit LTA4-h by various known assays and by assays described herein. For example, the compounds can be tested for their ability to inhibit LTA4-h activity by assaying the compounds in the hydrolase-homogeneous time resolved fluoroescence assay. This assay, which is a two-step assay, measures the hydrolysis of […] to LTB4 by analyzing the amount of LTB4 produced. The first step involves the enzymatic conversion of […] to LTB4 and the second step involves the quantification of the […] with a homogeneous time resolved fluoroescence assay.
(§1) The whole blood and aminopeptidase assays were performed as described in Penning et al., J. Med. Chem. 2000, 43, 721-735, and Rudberg et al., J. Biol. Chem. Vol. 279, No. 26, Issue of June 25, pp. 27376-27382, 2004, the contents of each of which are expressly incorporated by reference herein. The hydrolase assay was performed as described in U.S. Pat. No. 7,737,145, the contents of which are expressly incorporated herein.

LTA4-h hydrolase = biological target: T2, LTA4-h hydrolase (Homo sapiens, UniProt P09960); experiment: Whole blood assay (WBA); assay type: cell-based
T2 construct: endogenous in cells; host or cells: whole blood
T2 sequence (P09960 1-611): T1 sequence (P09960 1-611)
Procedure: as §1, with “Compounds of the invention can also be tested for their ability as inhibitors of LTA4-h hydrolase in the whole blood assay using human, mouse, rat or dog whole blood (see Penning, T. D. et al., J. Med. Chem. (2000), 43(4): 721-735 for a description of a human whole blood assay and a mouse whole blood assay, the contents of which are expressly incorporated herein). […] The whole” for “The whole”

LTA4-h [2] = biological target: T1, LTA4-h; experiment: Peptidase (aminopeptidase) assay; assay type: biochemical; conditions: for inhibition at 3 µM: read-out: Peptidase % inhibition
Procedure: Since LTA4-h hydrolase is grouped with the M1 family of zinc metalloproteases (see, Rudberg, P. C. et al., J. Biol. […] The whole blood and aminopeptidase assays were performed as described in Penning et al., J. Med.

Row | Structure (SMILES) | IC50 (LTA4-h [1]) | IC50 (LTA4-h hydrolase) | IC50 (LTA4-h [2]) | other results
1 | Clc1ccc(Oc2ccc(NCC3CCNC3)cc2)cc1 (stereo not shown) [Compound 1] | 26 nM | 510 nM | 45 nM | 
2 | Clc1ccc(Oc2ccc(NCC3CCCCN3)cc2)cc1 (stereo not shown) [Compound 2] | 190 nM | 880 nM | 72 nM | 
3 | O=C(O)c1ccc(CN2CCC(CN(Cc3ccc(C(=O)O)cc3)c3ccc(Oc4ccc(Cl)cc4)cc3)C2)cc1 (stereo not shown) [Compound 3] | 300 nM | > 3000 nM | 88 nM | 
4 | Clc1ccc(Oc2ccc(NCC3CNC3)cc2)cc1 [Compound 4] | 7.9 nM | 90 nM | 1.7 nM | 
5 | Clc1ccc(Oc2ccc(NC3CNC3)cc2)cc1 [Compound 5] | 300 nM | 920 nM | 31 nM | 
6 | Clc1ccc(Oc2ccc(NC3CC4CCC(C3)N4)cc2)cc1 (stereo not shown) [Compound 6] | 360 nM | 1900 nM | 160 nM | 
7 | O=C(O)c1ccc(CN2CC(Nc3ccc(Oc4ccc(Cl)cc4)cc3)C2)cc1 [Compound 7] | 5 nM | 57 nM | 4 nM | 
8 | COC(=O)c1ccc(CN(CC2CCN(C(=O)OC(C)(C)C)C2)c2ccc(Oc3ccc(Cl)cc3)cc2)cc1 (stereo not shown) [Compound 9] |  |  |  | inhibition at 3 µM (LTA4-h [2]; at 3 uM): 56%
9 | COC(=O)c1ccc(CN(CC2CCNC2)c2ccc(Oc3ccc(Cl)cc3)cc2)cc1 (stereo not shown) [Compound 10] | 22 nM | 260 nM | 13 nM | 
10 | O=C(O)c1ccc(CN(CC2CCNC2)c2ccc(Oc3ccc(Cl)cc3)cc2)cc1 (stereo not shown) [Compound 11] | 70 nM | 670 nM | 140 nM | 
11 | COC(=O)c1ccc(CN(CC2CCN(C)C2)c2ccc(Oc3ccc(Cl)cc3)cc2)cc1 (stereo not shown) [Compound 12] | 70 nM | 240 nM | 150 nM | 
12 | COC(=O)c1ccc(CN(CC2CCN(Cc3ccc(F)cc3)C2)c2ccc(Oc3ccc(Cl)cc3)cc2)cc1 (stereo not shown) [Compound 13] |  | 2770 nM | 100 nM | 
13 | COC(=O)c1ccc(CN(CC2CCN(Cc3ccccc3)C2)c2ccc(Oc3ccc(Cl)cc3)cc2)cc1 (stereo not shown) [Compound 14] |  |  | 200 nM | 
14 | CN1CCC(CN(Cc2ccc(C(=O)O)cc2)c2ccc(Oc3ccc(Cl)cc3)cc2)C1 (stereo not shown) [Compound 15] | 470 nM | 560 nM | 290 nM | 
15 | O=C(O)c1ccc(CN(CC2CCN(Cc3ccc(F)cc3)C2)c2ccc(Oc3ccc(Cl)cc3)cc2)cc1 (stereo not shown) [Compound 16] | 2200 nM |  | 1600 nM | 
16 | O=C(O)c1ccc(CN(CC2CCN(Cc3ccccc3)C2)c2ccc(Oc3ccc(Cl)cc3)cc2)cc1 (stereo not shown) [Compound 17] |  |  | 1500 nM | 
17 | CC(C)(C)OC(=O)N1CCC(CN(Cc2ccccc2)c2ccc(Oc3ccc(Cl)cc3)cc2)C1 (stereo not shown) [Compound 18] |  |  |  | inhibition at 3 µM (LTA4-h [2]; at 3 uM): 0%
18 | CC(C)(C)OC(=O)N1CCC(CN(Cc2ccc(F)cc2)c2ccc(Oc3ccc(Cl)cc3)cc2)C1 (stereo not shown) [Compound 19] |  |  |  | inhibition at 3 µM (LTA4-h [2]; at 3 uM): 47%
19 | CN1CCC(CN(Cc2ccc(F)cc2)c2ccc(Oc3ccc(Cl)cc3)cc2)C1 (stereo not shown) [Compound 20] | 140 nM | 950 nM | 165 nM | 
20 | COC(=O)c1ccc(CN2CCC(CN(Cc3ccc(F)cc3)c3ccc(Oc4ccc(Cl)cc4)cc3)C2)cc1 (stereo not shown) [Compound 22] |  |  |  | inhibition at 3 µM (LTA4-h [2]; at 3 uM): 59%
21 | COC(=O)c1ccc(CN2CCC(CN(Cc3ccccc3)c3ccc(Oc4ccc(Cl)cc4)cc3)C2)cc1 (stereo not shown) [Compound 23] |  |  |  | inhibition at 3 µM (LTA4-h [2]; at 3 uM): 40%

Row | Structure (SMILES) | IC50 (LTA4-h [1]) | IC50 (LTA4-h hydrolase) | IC50 (LTA4-h [2]) | other results
22 | O=C(O)c1ccc(CN2CCC(CN(Cc3ccc(F)cc3)c3ccc(Oc4ccc(Cl)cc4)cc3)C2)cc1 (stereo not shown) [Compound 24] | 870 nM |  | 530 nM | 
23 | O=C(O)c1ccc(CN2CCC(CN(Cc3ccccc3)c3ccc(Oc4ccc(Cl)cc4)cc3)C2)cc1 (stereo not shown) [Compound 25] | 1550 nM | 520 nM | 370 nM | 
24 | COC(=O)c1ccc(CN(CC2CN(C(=O)OC(C)(C)C)C2)c2ccc(Oc3ccc(Cl)cc3)cc2)cc1 [Compound 26] |  |  |  | inhibition at 3 µM (LTA4-h [2]; at 3 uM): 42%
25 | CC(C)(C)OC(=O)CN(CC1CCN(C(=O)OC(C)(C)C)C1)c1ccc(Oc2ccc(Cl)cc2)cc1 (stereo not shown) [Compound 27] |  |  |  | inhibition at 3 µM (LTA4-h [2]; at 3 uM): 7%
26 | COC(=O)c1ccc(CN(CC2CNC2)c2ccc(Oc3ccc(Cl)cc3)cc2)cc1 [Compound 28] | 170 nM | 800 nM | 46 nM | 
27 | O=C(O)CN(CC1CCNC1)c1ccc(Oc2ccc(Cl)cc2)cc1 (stereo not shown) [Compound 29] | 320 nM | 920 nM | 22 nM | 
28 | O=C(O)c1ccc(CN(CC2CNC2)c2ccc(Oc3ccc(Cl)cc3)cc2)cc1 [Compound 30] | 1000 nM | 1600 nM | 240 nM | 
29 | COC(=O)c1cccc(CN(CC2CN(C(=O)OC(C)(C)C)C2)c2ccc(Oc3ccc(Cl)cc3)cc2)c1 [Compound 31] |  |  | 76 nM | inhibition at 3 µM (LTA4-h [1]; at 3 uM): > 5%
30 | CC(C)(C)OC(=O)N1CCC(CN(Cc2ccc(S(N)(=O)=O)cc2)c2ccc(Oc3ccc(Cl)cc3)cc2)C1 (stereo not shown) [Compound 32] | 1300 nM | 2800 nM | 12 nM | 
31 | COC(=O)c1cccc(CN(CC2CCN(C(=O)OC(C)(C)C)C2)c2ccc(Oc3ccc(Cl)cc3)cc2)c1 (stereo not shown) [Compound 33] |  |  |  | inhibition at 3 µM (LTA4-h [2]; at 3 uM): 22%
32 | COC(=O)c1cccc(CN(CC2CCNC2)c2ccc(Oc3ccc(Cl)cc3)cc2)c1 (stereo not shown) [Compound 34] |  |  | 62 nM | 
33 | COC(=O)c1cccc(CN(CC2CNC2)c2ccc(Oc3ccc(Cl)cc3)cc2)c1 [Compound 35] |  |  | 33 nM | 
34 | O=C(O)c1cccc(CN(CC2CCNC2)c2ccc(Oc3ccc(Cl)cc3)cc2)c1 (stereo not shown) [Compound 36] | 12 nM |  | 60 nM | 
35 | O=C(O)c1cccc(CN(CC2CNC2)c2ccc(Oc3ccc(Cl)cc3)cc2)c1 [Compound 37] | 62 nM |  | 35 nM | 
36 | NS(=O)(=O)c1ccc(CN(CC2CCNC2)c2ccc(Oc3ccc(Cl)cc3)cc2)cc1 (stereo not shown) [Compound 38] | 12 nM |  | 26 nM | 
37 | CC(C)(C)OC(=O)N1CCC(CN(Cc2ccc([N+](=O)[O-])cc2)c2ccc(Oc3ccc(Cl)cc3)cc2)C1 (stereo not shown) [Compound 39] |  |  |  | inhibition at 3 µM (LTA4-h [2]): 19%
38 | COC(=O)c1coc(CN(CC2CCNC2)c2ccc(Oc3ccc(Cl)cc3)cc2)n1 (stereo not shown) [Compound 40] |  |  | 125 nM | 
39 | Clc1ccc(Oc2ccc(NC[C@@H]3CCCN3)cc2)cc1 [Compound 42] |  |  | 70 nM | 
40 | CC(C)(C)OC(=O)N1CCC[C@H]1CN(Cc1ccc(S(N)(=O)=O)cc1)c1ccc(Oc2ccc(Cl)cc2)cc1 [Compound 43] |  |  |  | inhibition at 1 µM (LTA4-h [2]; at 1 uM): 0%
41 | NS(=O)(=O)c1ccc(CN(C[C@@H]2CCCN2)c2ccc(Oc3ccc(Cl)cc3)cc2)cc1 [Compound 44] |  |  | 110 nM | 
